Laboratory results: patent US6969711B2, “Cyclic diamine compounds and medicine containing the same” (Kowa Company, Ltd., priority 1997, dated 2005)

melting point | Compound
115 to 117 °C | CCOCCOc1cc(C(C)C)c(NC(=O)CN2CCN(CCCSc3nc4ccccc4o3)CC2)c(C(C)C)c1 [Example 120, 2-[4-[3-(benzoxazol-2-ylthio)propyl]piperazin-1-yl]-N-[2,6-diisopropyl-4-(2-ethoxyethyloxy)phenyl]acetamide]
153 to 155 °C | CC(C)c1cccc(C(C)C)c1NC(=O)CN1CCN(CCSc2nc3cccc([N+](=O)[O-])c3o2)CC1 [Example 104, 2-[4-[2-(7-nitrobenzoxazol-2-ylthio)ethyl]-piperazin-1-yl]-N-(2,6-diisopropylphenyl)acetamide]
115 to 117 °C | CC(C)c1ccc([N+](=O)[O-])c(C(C)C)c1NC(=O)CN1CCN(CCSc2nc3cccc(C(F)(F)F)c3o2)CC1 [Example 87, 2-[4-[2-(7-trifluoromethylbenzoxazol-2-ylthio)ethyl]piperazin-1-yl]-N-(2,6-diisopropyl-3-nitrophenyl)acetamide]
130 to 133 °C | CC(C)c1cc(O[C@@H]2O[C@H](CO)[C@@H](O)[C@H](O)[C@H]2O)cc(C(C)C)c1NC(=O)CN1CCN(CCSc2nc3cccc(C(F)(F)F)c3o2)CC1 [Example 134, 2-[4-[2-(7-trifluoromethylbenzoxazol-2-ylthio)ethyl]piperazin-1-yl]-N-[2,6-diisopropyl-4-(β-D-glucopyranosyl)oxyphenyl]acetamide]
162 to 164 °C | CC(C)c1cc(O)cc(C(C)C)c1NC(=O)CN1CCN(CCSc2nc3ccccc3o2)CC1 [Example 72, 2-[4-[2-(benzoxazol-2-ylthio)ethyl]piperazin-1-yl]-N-(2,6-diisopropyl-4-hydroxyphenyl)acetamide]
162 to 163 °C | Cc1c(Cl)cc(C(C)C)c2oc(SCCN3CCN(CC(=O)Nc4c(C(C)C)cccc4C(C)C)CC3)nc12 [Example 97, 2-[4-[2-(5-chloro-7-isopropyl-4-methylbenzoxazol-2-ylthio)ethyl]piperazin-1-yl]-N-(2,6-diisopropylphenyl)acetamide]
146 to 148 °C | CC(C)c1cc(CO)cc(C(C)C)c1NC(=O)CN1CCN(CCSc2nc3cccc(C(F)(F)F)c3o2)CC1 [Example 140, 2-[4-[2-(7-trifluoromethylbenzoxazol-2-ylthio)ethyl]piperazin-1-yl]-N-[2,6-diisopropyl-4-hydroxymethylphenyl]acetamide]
147 to 149 °C | CC(C)c1cccc(C(C)C)c1NC(=O)NCCN1CCN(CCSc2nc3ccccc3s2)CC1 [Example 81, N-[2-[4-[2-(benzothiazole-2-ylthio)ethyl]piperazin-1-yl]ethyl]-N′-(2,6-diisopropylphenyl)urea]
142 to 144 °C | CC(C)c1ccc(F)c(C(C)C)c1NC(=O)CN1CCN(CCSc2nc3ccccc3o2)CC1 [Example 155, 2-[4-[2-(benzoxazol-2-ylthio)ethyl]piperazin-1-yl]-N-(2,6-diisopropyl-3-fluorophenyl)acetamide]
186 to 187 °C | COC(=O)c1ccc2nc(SCCN3CCN(CC(=O)Nc4c(C(C)C)cccc4C(C)C)CC3)oc2c1C(=O)OC [Example 99, 2-[4-[2-(6,7-bis(methoxycarbonyl)benzoxazol-2-ylthio]ethyl]piperazin-1-yl]-N-(2,6-diisopropylphenyl)acetamide]
115 to 117 °C | COc1cc(C(C)C)c(NC(=O)CN2CCN(CCSc3nc4ccccc4o3)CC2)c(C(C)C)c1 [Example 75, 2-[4-[2-(benzoxazol-2-ylthio)ethyl]piperazin-1-yl]-N-(2,6-diisopropyl-4-methoxyphenyl)acetamide]
115 to 117 °C | CC(C)c1cc(OS(C)(=O)=O)cc(C(C)C)c1NC(=O)CN1CCN(CCSc2nc3ccccc3o2)CC1 [Example 74, 2-[4-[2-(benzoxazol-2-ylthio)ethyl]piperazin-1-yl]-N-(2,6-diisopropyl-4-mesyloxyphenyl)acetamide]
105 to 107 °C | COc1ccc(C(C)C)c(NC(=O)CN2CCN(CCCSc3nc4ccccc4o3)CC2)c1C(C)C [Example 70, 2-[4-[3-(benzoxazol-2-ylthio)propyl]piperazin-1-yl]-N-(2,6-diisopropyl-3-methoxyphenyl)acetamide]
129 to 130 °C | COc1cc(C(C)C)c(NC(=O)CN2CCN(CCCSc3nc4ccccc4o3)CC2)c(C(C)C)c1 [Example 119, 2-[4-[3-(benzoxazol-2-ylthio)propyl]piperazin-1-yl]-N-(2,6-diisopropyl-4-methoxyphenyl)acetamide]
120 to 121 °C | CSc1cccc2nc(SCCN3CCN(CC(=O)Nc4c(C(C)C)cccc4C(C)C)CC3)oc12 [Example 112, 2-[4-[2-(7-methylthiobenzoxazol-2-ylthio)ethyl]piperazin-1-yl]-N-(2,6-diisopropylphenyl)acetamide]
57 to 59 °C | Cc1cc(SC(C)C)c(NC(=O)CN2CCN(CCSc3nc4cccc([N+](=O)[O-])c4o3)CC2)c(SC(C)C)n1 [Example 107, 2-[4-[2-(7-nitrobenzoxazol-2-ylthio)ethyl]-piperazin-1-yl]-N-[2,4-bis(isopropylthio)-6-methyl-3-pyridyl]acetamide]

Second part, the compound before the results:

Compound | melting point
COC(=O)c1cccc2oc(SCCCN3CCN(CC(=O)Nc4c(C(C)C)cccc4C(C)C)CC3)nc12 [Example 11, 2-[4-[3-(4-methoxycarbonylbenzoxazol-2-ylthio)propyl]piperazin-1-yl]-N-(2,6-diisopropylphenyl)acetamide] | 132 to 133 °C
CCCCCCCN(CCN1CCN(CCSc2nc3cccc(C(F)(F)F)c3o2)CC1)C(=O)Nc1c(C(C)C)cc(O)cc1C(C)C.Cl | 95 to 97 °C
CC(=O)Oc1cc(C(C)C)c(NC(=O)CN2CCN(CCSc3nc4ccccc4o3)CC2)c(C(C)C)c1 [Example 73, 2-[4-[2-(benzoxazol-2-ylthio)ethyl]piperazin-1-yl]-N-(4-acetoxy-2,6-diisopropylphenyl)acetamide] | 126 to 129 °C
CC(C)c1cc(OC(=O)[C@H](C)N)cc(C(C)C)c1NC(=O)CN1CCN(CCSc2nc3cccc(C(F)(F)F)c3o2)CC1.O=C(O)C(F)(F)F.O=C(O)C(F)(F)F.O=C(O)C(F)(F)F | 124 to 126 °C
CC(C)c1cc(OC(=O)[C@H](C)N)cc(C(C)C)c1NC(=O)CN1CCN(CCSc2nc3ccccc3o2)CC1.O=C(O)C(F)(F)F.O=C(O)C(F)(F)F.O=C(O)C(F)(F)F | 183 to 184 °C
CCCCCCCN(CCN1CCN(CCCSc2nc3ccccc3o2)CC1)C(=O)Nc1c(SC)cc(C)nc1SC.Cl.Cl | 208 to 210 °C
Cc1cc(C)c(NC(=O)CN2CCN(CCSc3nc4ccccc4o3)CC2)c(C)n1 [Example 47, 2-[4-[2-(benzoxazol-2-ylthio)ethyl]piperazin-1-yl]-N-(2,4,6-trimethyl-3-pyridyl)acetamide] | 159 to 160 °C
CC(C)c1ccc([N+](=O)[O-])c(C(C)C)c1NC(=O)CN1CCN(CCCSc2nc3ccccc3o2)CC1 [Example 67, 2-[4-[3-(benzoxazol-2-ylthio)propyl]piperazin-1-yl]-N-(2,6-diisopropyl-3-nitrophenyl)acetamide] | 156 to 158 °C
CC(C)c1cccc(C(C)C)c1NC(=O)CN1CCN(CCCSc2nc3ncccc3o2)CC1 [Example 12, 2-[4-[3-(oxazolo[4,5-b]pyridine-2-ylthio)propyl]piperazin-1-yl]-N-(2,6-diisopropylphenyl)acetamide] | 125 to 127 °C
CCSc1cc(C)nc(SCC)c1NC(=O)CN1CCN(CCSc2nc3cccc(C(=O)OC)c3o2)CC1 [Example 35, 2-[4-[2-(7-methoxycarbonylbenzoxazol-2-ylthio)ethyl]piperazin-1-yl]-N-[2,4-bis(ethylthio)-6methyl-3-pyridyl)acetamide] | 118 to 119 °C
COC(=O)c1cccc2nc(SCCN3CCN(CC(=O)Nc4c(C(C)C)cccc4C(C)C)CC3)oc12 [Example 4, 2-[4-[2-(7-methoxycarbonylbenzoxazol-2-ylthio)ethyl]-piperazin-1-yl]-N-(2,6diisopropylphenyl)acetamide] | 159 to 161 °C
CCCCCCCN(CCN1CCN(CCSc2nc3ccccc3s2)CC1)C(=O)Nc1c(SCC)cc(C)nc1SCC.Cl.Cl | 136 to 138 °C
CC(C)c1cccc(C(C)C)c1NC(=O)CN1CCN(CCCSc2nc3ccccc3s2)CC1 [Example 8, 2-[4-[3-(benzothiazol-2-ylthio)propyl]piperazin-1-yl]-N-(2,6-diisopropylphenyl)acetamide] | 113 to 115 °C
Cc1cc(SC(C)C)c(NC(=O)CN2CCN(CCCSc3nc4ccccc4o3)CC2)c(SC(C)C)n1.Cl.Cl | 178 to 181 °C
CC(C)c1ccc(OS(C)(=O)=O)c(C(C)C)c1NC(=O)CN1CCN(CCSc2nc3ccccc3o2)CC1 [Example 62, 2-[4-[2-(benzoxazol-2-ylthio)ethyl]-piperazin-1-yl]-N-(2,6-diisopropyl-3-mesyloxyphenyl)acetamide] | 164 to 166 °C (dec.)
CCCCCCCN(CCN1CCN(CCSc2nc3cccc(C(=O)OC)c3o2)CC1)C(=O)Nc1c(C(C)C)cccc1C(C)C [Example 17, N′-(2,6-diisopropylphenyl)-N-heptyl-N-[2-[4-[2-(7-methoxycarbonylbenzoxazol-2-ylthio)-ethyl]piperazin-1-yl]ethyl]urea] | 125 to 126 °C
CCCCCCCN(CCN1CCN(CCSc2nc3ccccc3o2)CC1)C(=O)Nc1c(SCC)cc(C)nc1SCC.Cl.Cl | 124 to 127 °C
CSc1nc(C)ccc1NC(=O)CN1CCN(CCSc2nc3ccccc3o2)CC1.Cl.Cl | 200 to 203 °C
CC(C)c1ccc(N(C)C)c(C(C)C)c1NC(=O)CN1CCN(CCSc2nc3ccccc3o2)CC1 [Example 59, 2-[4-[2-(benzoxazol-2-ylthio)ethyl]piperazin-1-yl]-N-(2,6-diisopropyl-3-dimethylaminophenyl)acetamide] | 159 to 161 °C
CSc1cc(C)nc(SC)c1NC(=O)CN1CCN(CCCSc2nc3ccccc3o2)CC1 [Example 28, 2-[4-[3-(benzoxazol-2-ylthio)propyl]piperazin-1-yl]-N-[2,4-bis(methylthio)-6-methyl-3-pyridyl]acetamide] | 160 to 161 °C
CCOCCOc1ccc(C(C)C)c(NC(=O)CN2CCN(CCSc3nc4ccccc4o3)CC2)c1C(C)C [Example 65, 2-[4-[2-(benzoxazol-2-ylthio)ethyl]piperazin-1-yl]-N-[2,6-diisopropyl-3-(2-ethoxyethyloxy)phenyl)acetamide] | 100 to 103 °C
